Where “and” joins values, the source holds several entries; their conditions need not be identical. Equal values may be shown once.
Target: T1, Ub activating enzyme (UAE) (Homo sapiens, UniProt P22314)
T1 construct: purchased Boston Biochem
T1 sequence (P22314 1-1058): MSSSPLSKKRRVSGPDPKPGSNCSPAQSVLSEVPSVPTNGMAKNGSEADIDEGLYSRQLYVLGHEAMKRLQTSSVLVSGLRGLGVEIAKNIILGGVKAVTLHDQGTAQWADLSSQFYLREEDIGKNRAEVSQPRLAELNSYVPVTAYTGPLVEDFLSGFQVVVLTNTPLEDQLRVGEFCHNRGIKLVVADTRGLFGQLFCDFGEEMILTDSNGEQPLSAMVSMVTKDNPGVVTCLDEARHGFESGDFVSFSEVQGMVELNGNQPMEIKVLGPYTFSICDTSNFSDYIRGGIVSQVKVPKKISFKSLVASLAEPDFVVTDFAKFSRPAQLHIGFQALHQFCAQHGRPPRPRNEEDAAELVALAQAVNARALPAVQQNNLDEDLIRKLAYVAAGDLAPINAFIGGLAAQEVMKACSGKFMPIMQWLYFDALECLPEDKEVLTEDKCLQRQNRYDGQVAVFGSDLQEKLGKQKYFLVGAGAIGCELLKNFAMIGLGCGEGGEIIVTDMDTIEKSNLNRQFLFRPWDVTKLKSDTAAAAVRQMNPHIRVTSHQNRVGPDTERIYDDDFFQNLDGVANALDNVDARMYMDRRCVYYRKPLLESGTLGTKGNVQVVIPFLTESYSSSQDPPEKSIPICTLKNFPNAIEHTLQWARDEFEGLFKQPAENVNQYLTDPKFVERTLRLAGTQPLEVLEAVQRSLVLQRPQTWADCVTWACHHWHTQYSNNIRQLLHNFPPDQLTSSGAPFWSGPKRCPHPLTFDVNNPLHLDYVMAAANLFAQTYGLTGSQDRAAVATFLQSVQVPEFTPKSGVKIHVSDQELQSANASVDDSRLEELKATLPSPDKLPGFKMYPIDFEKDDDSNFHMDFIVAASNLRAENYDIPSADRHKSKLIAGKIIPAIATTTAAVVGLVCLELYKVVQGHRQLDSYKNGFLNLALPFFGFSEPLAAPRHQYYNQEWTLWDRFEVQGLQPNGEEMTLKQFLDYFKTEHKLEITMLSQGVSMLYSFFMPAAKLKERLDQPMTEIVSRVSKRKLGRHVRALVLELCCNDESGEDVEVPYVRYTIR
Test: UAE transthiolation assay (Ub transfer to His6-UbcH6)
Assay type: biochemical
Description: Initial rates were recorded over 30 second time intervals from 0 to 2.5 min (normal kinetics) or 0 to 5 min (inhibition kinetics). Reactions were initiated by the addition of ATP and stopped using 4× Laemmli sample buffer (BioRad). The generated protein conjugates were separated on a 10% non-degenerating SDS-polyacrylamide gel (4-15% gels were used for the UAE transthiolaton assay), followed by Western blot analysis, with the exception of GST-UBA5 where protein bands were detected using Coomassie™ Brilliant Blue R-250 staining or Stain-Free gel imaging for the enzymatic assays (Bio-Rad). Transfers for the UAE and NAE immunoblots were performed using nitrocellulose membranes and blocking and blotting was performed as described above with cellular protein extracts. The His6-tagged Ub-UBCH6 complex was detected using an anti-His mouse monoclonal primary antibody (1:500, abcam). A rabbit anti-NEDD8 polyclonal primary antibody (1:500, BostonBiochem) was used for the detection of the E2-NEDD8 complexes. […] Inhibitory data was fit to a dose-response curve (Y=Bottom+(Top−Bottom)/(1+10^(X-Log IC50))) using GraphPad Prism 6.

Nc1ncnc2c1ncn2[C@@H]1O[C@H](C(=O)NCCCCCC(=O)N2CCNCCNCCNCC2)[C@@H](O)[C@H]1O.O=S(=O)([O-])C(F)(F)F.O=S(=O)([O-])C(F)(F)F.[Zn+2] [Compound 1.5.Zn, (2S,3S,4R,5R)—N-(6-(1,4,7,10-tetraazacyclododecan-1-yl)-6-oxohexyl)-5-(6-amino-9H-purin-9-yl)-3,4-dihydroxytetrahydrofuran-2-carboxamide zinc trifluoromethanesulfonate] was tested, and the IC50 (n=3-6) was 76.7 µM and 78.5 µM and the “selectivity for UBA5 over UAE” value (ratio of IC50) was > 20 fold and ~20 fold.

From US10077284B2, “UBA5 inhibitors” (THE GOVERNING COUNCIL OF THE UNIVERSITY OF TORONTO, priority 2014, dated 2018)
